Data: PubChem BioAssay AID1963433 (Molecular Pharmacology Branch, DTP, NCI, 2024)
Several values for one entry are separate records, joined by “and”; a condition that tells them apart may be missing. Identical values can stand only once.

Test system: 772245-204-R-J1-PDC complex spheroid growth
Assay: Anticancer human tumor 772245-204-R-J1-PDC patient-derived rhabdomyosarcoma cell line growth inhibition [Asc]
Conditions: for viability, T/C: stronger effect = lower value
Procedure, shortened: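 Stromal components (HUVEC and hMSC) are co-assembled with the cancer cells into multicellular spheroids. Drugs are then added singly or paired, at concentrations falling by half-log increments from a clinically achievable maximum, capped at 10 microM without known Cmax.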

[1] = curve of first compound, second compound 0.1 µM
[2] = curve of first compound, second compound 0.316 µM
[3] = curve of first compound, second compound 1 µM
[4] = second compound 0.1 µM, first compound 0.00949 µM
[5] = second compound 0.1 µM, first compound 0.03 µM
[6] = second compound 0.1 µM, first compound 0.0949 µM
[7] = second compound 0.1 µM, first compound 0.3 µM
[8] = second compound 0.1 µM, first compound 0.949 µM
[9] = second compound 0.1 µM, first compound 3 µM
[10] = second compound 0.316 µM, first compound 0.00949 µM
[11] = second compound 0.316 µM, first compound 0.03 µM
[12] = second compound 0.316 µM, first compound 0.0949 µM
[13] = second compound 0.316 µM, first compound 0.3 µM
[14] = second compound 0.316 µM, first compound 0.949 µM
[15] = second compound 0.316 µM, first compound 3 µM
[16] = second compound 1 µM, first compound 0.00949 µM
[17] = second compound 1 µM, first compound 0.03 µM
[18] = second compound 1 µM, first compound 0.0949 µM
[19] = second compound 1 µM, first compound 0.3 µM
[20] = second compound 1 µM, first compound 0.949 µM
[21] = second compound 1 µM, first compound 3 µM
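Also: compound exposure lasted seven days.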
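For viability, T/C in this document: 100% = DMSO vehicle control viability.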

Compound Cc1nc(N2CCC3(CC2)COC(C)C3N)c(CO)nc1Sc1ccnc(N)c1Cl (stereo not drawn) + Cc1c(S(C)(=O)=O)c(-c2cc(F)cc(N3CCN(c4ccc(NS(=O)(=O)c5ccc(NC(CCN6CCC(C(=O)OCCCP(=O)(O)O)CC6)CSc6ccccc6)c(S(=O)(=O)C(F)(F)F)c5)cc4)CC3)c2)c(-c2ccc(Cl)cc2)n1C(C)C has an IC50 [1] of 2.23 µM, an IC50 [2] of 0.644 µM and an IC50 [3] of 0.369 µM. It also gave an IC50 (curve of first compound, second compound 3.16 µM) of 0.0862 µM, an IC50 (curve of first compound, second compound 10 µM) of 0.444 µM and a viability, T/C [4] of 90.3%. It also gave a viability, T/C [5] of 90.2%, a viability, T/C [6] of 85% and a viability, T/C [7] of 71%. The viability, T/C [8] was 63.7%, the viability, T/C [9] was 45.4% and the viability, T/C [10] was 72.6%. For the same compound, the viability, T/C [11] was 76.3%, the viability, T/C [12] was 70.9% and the viability, T/C [13] was 57%. It also gave a viability, T/C [14] of 46.8%, a viability, T/C [15] of 31.2% and a viability, T/C [16] of 47.4%. It also gave a viability, T/C [17] of 63.7%, a viability, T/C [18] of 68.6% and a viability, T/C [19] of 47.9%. The viability, T/C [20] was 38.3%, the viability, T/C [21] was 20.3% and the viability, T/C (second compound 3.16 µM, first compound 0.00949 µM) was 60.9%. It also gave a viability, T/C (second compound 3.16 µM, first compound 0.03 µM) of 49.7%, a viability, T/C (second compound 3.16 µM, first compound 0.0949 µM) of 54.9% and a viability, T/C (second compound 3.16 µM, first compound 0.3 µM) of 37.9%. For the same compound, the viability, T/C (second compound 3.16 µM, first compound 0.949 µM) was 32.4%, the viability, T/C (second compound 3.16 µM, first compound 3 µM) was 14.5% and the viability, T/C (second compound 10 µM, first compound 0.00949 µM) was 52.1%. The viability, T/C (second compound 10 µM, first compound 0.03 µM) was 61.2%, the viability, T/C (second compound 10 µM, first compound 0.0949 µM) was 60.9% and the viability, T/C (second compound 10 µM, first compound 0.3 µM) was 55.4%. For the same compound, the viability, T/C (second compound 10 µM, first compound 0.949 µM) was 38.7% and the viability, T/C (second compound 10 µM, first compound 3 µM) was 16.4%.

In the case of COc1c(OCCCN2CCOCC2)ccc2c3n(c(=NC(=O)c4cnc(N)nc4)nc12)CCN3, the viability, T/C (compound 0.00316 µM) is reported as 94.7% and 116% and 107%, the viability, T/C (compound 0.01 µM) is reported as 91.3% and 98.9% and 106% and the viability, T/C (compound 0.0316 µM) is reported as 77% and 76.2% and 90.4%. For the same compound, the viability, T/C (compound 0.1 µM) was 46.1% and 55.2% and 63.9%, the viability, T/C (compound 0.316 µM) was 41.3% and 42% and 43.8% and the viability, T/C (compound 1 µM) was 24.4% and 25.4% and 35.3%. The IC50 (curve of compound) was 0.105 µM and 0.175 µM and 0.217 µM.

Cc1nc(N2CCC3(CC2)COC(C)C3N)c(CO)nc1Sc1ccnc(N)c1Cl (stereo not drawn) + CCN1C(C(=O)NC23CCC(C(=O)O)(CC2)CC3)C(c2cccc(Cl)c2F)C2(C(=O)Nc3cc(Cl)ccc32)C12CCCCC2 gave an IC50 (curve of first compound, second compound 0.03 µM) greater than 3 µM, an IC50 (curve of first compound, second compound 0.0949 µM) greater than 3 µM and an IC50 (curve of first compound, second compound 0.3 µM) greater than 3 µM. It also gave an IC50 (curve of first compound, second compound 0.949 µM) greater than 3 µM, an IC50 (curve of first compound, second compound 3 µM) of 2.74 µM and a viability, T/C (second compound 0.03 µM, first compound 0.00949 µM) of 94.9%. The viability, T/C (second compound 0.03 µM, first compound 0.03 µM) was 120%, the viability, T/C (second compound 0.03 µM, first compound 0.0949 µM) was 108% and the viability, T/C (second compound 0.03 µM, first compound 0.3 µM) was 102%. It also gave a viability, T/C (second compound 0.03 µM, first compound 0.949 µM) of 76.9%, a viability, T/C (second compound 0.03 µM, first compound 3 µM) of 56.9% and a viability, T/C (second compound 0.0949 µM, first compound 0.00949 µM) of 97.1%. The viability, T/C (second compound 0.0949 µM, first compound 0.03 µM) was 100%, the viability, T/C (second compound 0.0949 µM, first compound 0.0949 µM) was 119% and the viability, T/C (second compound 0.0949 µM, first compound 0.3 µM) was 93.3%. For the same compound, the viability, T/C (second compound 0.0949 µM, first compound 0.949 µM) was 84.1%, the viability, T/C (second compound 0.0949 µM, first compound 3 µM) was 51% and the viability, T/C (second compound 0.3 µM, first compound 0.00949 µM) was 111%. It also gave a viability, T/C (second compound 0.3 µM, first compound 0.03 µM) of 110%, a viability, T/C (second compound 0.3 µM, first compound 0.0949 µM) of 88.3% and a viability, T/C (second compound 0.3 µM, first compound 0.3 µM) of 85.3%. It also gave a viability, T/C (second compound 0.3 µM, first compound 0.949 µM) of 77.8%, a viability, T/C (second compound 0.3 µM, first compound 3 µM) of 52% and a viability, T/C (second compound 0.949 µM, first compound 0.00949 µM) of 113%. It also gave a viability, T/C (second compound 0.949 µM, first compound 0.03 µM) of 109%, a viability, T/C (second compound 0.949 µM, first compound 0.0949 µM) of 109% and a viability, T/C (second compound 0.949 µM, first compound 0.3 µM) of 97.5%. For the same compound, the viability, T/C (second compound 0.949 µM, first compound 0.949 µM) was 75.7%, the viability, T/C (second compound 0.949 µM, first compound 3 µM) was 52% and the viability, T/C (second compound 3 µM, first compound 0.00949 µM) was 75.6%. It also gave a viability, T/C (second compound 3 µM, first compound 0.03 µM) of 92.5%, a viability, T/C (second compound 3 µM, first compound 0.0949 µM) of 85.7% and a viability, T/C (second compound 3 µM, first compound 0.3 µM) of 71.9%. For the same compound, the viability, T/C (second compound 3 µM, first compound 0.949 µM) was 62.6% and the viability, T/C (second compound 3 µM, first compound 3 µM) was 48.5%.

In the case of O=C(c1cc(Cc2n[nH]c(=O)c3ccccc23)ccc1F)N1CCN(C(=O)C2CC2)CC1, the viability, T/C (compound 0.0316 µM) is reported as 84.8% and 122% and 103%, the viability, T/C (compound 0.1 µM) is reported as 109% and 93.1% and 107% and the viability, T/C (compound 0.316 µM) is reported as 92.4% and 70.8% and 81.9%. For the same compound, the viability, T/C (compound 1 µM) was 79.6% and 91.7% and 83.5%, the viability, T/C (compound 3.16 µM) was 80.8% and 88.8% and 89.9% and the viability, T/C (compound 10 µM) was 59.2% and 60% and 83.6%. It also gave an IC50 (curve of compound) greater than 10 µM.

Work on Cc1nc(N2CCC3(CC2)COC(C)C3N)c(CO)nc1Sc1ccnc(N)c1Cl (stereo not drawn) + CNC(C)C(=O)NC1CN(S(=O)(=O)c2cccc(S(=O)(=O)N3CCC4CCC(C(=O)NC(c5ccccc5)c5ccccc5)N4C(=O)C(NC(=O)C(C)NC)C3)c2)CCC2CCC(C(=O)NC(c3ccccc3)c3ccccc3)N2C1=O yielded an IC50 (curve of first compound, second compound 0.00316 µM) greater than 3 µM, an IC50 (curve of first compound, second compound 0.01 µM) greater than 3 µM and an IC50 (curve of first compound, second compound 0.0316 µM) greater than 3 µM. It also gave an IC50 [1] greater than 3 µM, an IC50 [2] greater than 3 µM and an IC50 [3] greater than 3 µM. It also gave a viability, T/C (second compound 0.00316 µM, first compound 0.00949 µM) of 101%, a viability, T/C (second compound 0.00316 µM, first compound 0.03 µM) of 105% and a viability, T/C (second compound 0.00316 µM, first compound 0.0949 µM) of 109%. The viability, T/C (second compound 0.00316 µM, first compound 0.3 µM) was 105%, the viability, T/C (second compound 0.00316 µM, first compound 0.949 µM) was 115% and the viability, T/C (second compound 0.00316 µM, first compound 3 µM) was 92.9%. The viability, T/C (second compound 0.01 µM, first compound 0.00949 µM) was 108%, the viability, T/C (second compound 0.01 µM, first compound 0.03 µM) was 93.4% and the viability, T/C (second compound 0.01 µM, first compound 0.0949 µM) was 107%. For the same compound, the viability, T/C (second compound 0.01 µM, first compound 0.3 µM) was 117%, the viability, T/C (second compound 0.01 µM, first compound 0.949 µM) was 102% and the viability, T/C (second compound 0.01 µM, first compound 3 µM) was 75.4%. It also gave a viability, T/C (second compound 0.0316 µM, first compound 0.00949 µM) of 104%, a viability, T/C (second compound 0.0316 µM, first compound 0.03 µM) of 99.3% and a viability, T/C (second compound 0.0316 µM, first compound 0.0949 µM) of 105%. The viability, T/C (second compound 0.0316 µM, first compound 0.3 µM) was 101%, the viability, T/C (second compound 0.0316 µM, first compound 0.949 µM) was 88.3% and the viability, T/C (second compound 0.0316 µM, first compound 3 µM) was 78.6%. The viability, T/C [4] was 105%, the viability, T/C [5] was 99.1% and the viability, T/C [6] was 88.4%. For the same compound, the viability, T/C [7] was 98.6%, the viability, T/C [8] was 99.6% and the viability, T/C [9] was 75.9%. The viability, T/C [10] was 101%, the viability, T/C [11] was 90.6% and the viability, T/C [12] was 91.4%. The viability, T/C [13] was 99.1%, the viability, T/C [14] was 86.8% and the viability, T/C [15] was 74.7%. For the same compound, the viability, T/C [16] was 95.8%, the viability, T/C [17] was 89% and the viability, T/C [18] was 104%. For the same compound, the viability, T/C [19] was 90.6%, the viability, T/C [20] was 93.6% and the viability, T/C [21] was 66.9%.

In the case of Cn1ncnc1[C@H]1c2n[nH]c(=O)c3cc(F)cc(c23)N[C@@H]1c1ccc(F)cc1, the viability, T/C (compound 0.000316 µM) is reported as 84.4% and 103% and 99.8%, the viability, T/C (compound 0.001 µM) is reported as 98% and 95.3% and 90.9% and the viability, T/C (compound 0.00316 µM) is reported as 78.3% and 81.4% and 77%. For the same compound, the viability, T/C (compound 0.01 µM) was 87.9% and 86.6% and 89.3%, the viability, T/C (compound 0.0316 µM) was 69.3% and 101% and 82.6% and the viability, T/C (compound 0.1 µM) was 72.6% and 93.3% and 85.5%. The IC50 (curve of compound) was greater than 0.1 µM.
